Assay results as given in article PMC6704710, “Preclinical evaluation of 3D185, a novel potent inhibitor of FGFR1/2/3 and CSF-1R, in FGFR-dependent and macrophage-dominant cancer models” (Journal of Experimental & Clinical Cancer Research : CR, 2019).

Assays:
Experiment in all cases: Eurofins kinase panel
Assay type in all cases: biochemical
[1] = molecular target: FGFR1(h) (Homo sapiens, UniProt P11362)
[2] = molecular target: T1, NLK(h) (Homo sapiens, UniProt Q9UBE8); conditions: read-out: Inhibition rate (%)
T1 construct: purchased Eurofins (KinaseProfiler)
T1 sequence (Q9UBE8 1-527): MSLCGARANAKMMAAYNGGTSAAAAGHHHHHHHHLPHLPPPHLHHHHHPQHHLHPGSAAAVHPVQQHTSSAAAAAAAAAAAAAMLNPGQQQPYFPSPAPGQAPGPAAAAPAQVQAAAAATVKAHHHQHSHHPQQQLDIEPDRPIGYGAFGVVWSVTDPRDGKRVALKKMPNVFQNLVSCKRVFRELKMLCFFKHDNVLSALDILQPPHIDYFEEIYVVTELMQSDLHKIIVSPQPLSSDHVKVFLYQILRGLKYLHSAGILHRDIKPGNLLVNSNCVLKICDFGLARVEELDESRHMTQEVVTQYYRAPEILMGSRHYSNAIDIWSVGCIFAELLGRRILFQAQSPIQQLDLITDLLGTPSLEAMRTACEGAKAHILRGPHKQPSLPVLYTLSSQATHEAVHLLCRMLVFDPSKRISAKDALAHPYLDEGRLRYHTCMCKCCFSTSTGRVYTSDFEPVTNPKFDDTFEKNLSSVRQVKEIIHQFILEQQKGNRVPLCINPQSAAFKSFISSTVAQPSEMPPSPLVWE

[3] = molecular target: T2, MARK3(h) (Homo sapiens, UniProt P27448); conditions: read-out: Inhibition rate (%)
T2 construct: purchased Eurofins (KinaseProfiler)

[4] = molecular target: T3, DRAK2(h) (Homo sapiens, UniProt O94768); conditions: read-out: Inhibition rate (%)
T3 construct: purchased Eurofins (KinaseProfiler)
T3 sequence (O94768 1-372): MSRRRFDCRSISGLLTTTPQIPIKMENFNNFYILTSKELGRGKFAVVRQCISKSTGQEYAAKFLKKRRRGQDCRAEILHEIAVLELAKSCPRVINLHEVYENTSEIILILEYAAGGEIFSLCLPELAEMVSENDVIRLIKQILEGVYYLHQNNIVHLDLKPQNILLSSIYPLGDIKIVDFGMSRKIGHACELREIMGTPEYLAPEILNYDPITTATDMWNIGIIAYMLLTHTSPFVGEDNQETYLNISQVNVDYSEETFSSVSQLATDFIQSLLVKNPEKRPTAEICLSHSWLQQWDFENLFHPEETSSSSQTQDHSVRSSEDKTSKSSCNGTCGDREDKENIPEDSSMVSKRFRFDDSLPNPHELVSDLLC

[5] = molecular target: T4, Lck(h) activated (Homo sapiens, UniProt P06239); conditions: read-out: Inhibition rate (%)
T4 construct: purchased Eurofins (KinaseProfiler)

[6] = molecular target: T5, DYRK2(h) (Homo sapiens, UniProt Q92630); conditions: read-out: Inhibition rate (%)
T5 construct: purchased Eurofins (KinaseProfiler)
T5 sequence (Q92630 1-601): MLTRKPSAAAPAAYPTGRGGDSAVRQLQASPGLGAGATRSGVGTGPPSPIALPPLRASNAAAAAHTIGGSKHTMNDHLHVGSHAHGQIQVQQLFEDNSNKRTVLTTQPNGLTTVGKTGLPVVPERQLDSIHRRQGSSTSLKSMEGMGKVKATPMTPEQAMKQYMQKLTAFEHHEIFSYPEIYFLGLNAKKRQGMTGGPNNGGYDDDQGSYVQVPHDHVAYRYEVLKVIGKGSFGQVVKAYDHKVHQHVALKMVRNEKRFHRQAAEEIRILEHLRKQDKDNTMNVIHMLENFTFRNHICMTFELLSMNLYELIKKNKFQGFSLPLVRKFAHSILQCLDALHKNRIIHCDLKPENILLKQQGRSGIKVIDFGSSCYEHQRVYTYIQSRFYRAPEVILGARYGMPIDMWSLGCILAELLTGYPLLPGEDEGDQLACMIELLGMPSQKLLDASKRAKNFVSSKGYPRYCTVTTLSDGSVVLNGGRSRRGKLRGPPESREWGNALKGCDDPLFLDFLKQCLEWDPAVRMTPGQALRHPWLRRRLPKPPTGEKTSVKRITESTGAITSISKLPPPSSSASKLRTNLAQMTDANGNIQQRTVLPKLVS

[7] = molecular target: T6, Ret(V804M)(h) (Homo sapiens, UniProt P07949, V804M); conditions: read-out: Inhibition rate (%)
T6 construct: purchased Eurofins (KinaseProfiler)

[8] = molecular target: T7, TGFBR2(h) (Homo sapiens, UniProt P37173); conditions: read-out: Inhibition rate (%)
T7 construct: purchased Eurofins (KinaseProfiler)

[9] = molecular target: T8, CK2α2(h) (Homo sapiens, UniProt P19784); conditions: read-out: Inhibition rate (%)
T8 construct: purchased Eurofins (KinaseProfiler)
T8 sequence (P19784 whole entry): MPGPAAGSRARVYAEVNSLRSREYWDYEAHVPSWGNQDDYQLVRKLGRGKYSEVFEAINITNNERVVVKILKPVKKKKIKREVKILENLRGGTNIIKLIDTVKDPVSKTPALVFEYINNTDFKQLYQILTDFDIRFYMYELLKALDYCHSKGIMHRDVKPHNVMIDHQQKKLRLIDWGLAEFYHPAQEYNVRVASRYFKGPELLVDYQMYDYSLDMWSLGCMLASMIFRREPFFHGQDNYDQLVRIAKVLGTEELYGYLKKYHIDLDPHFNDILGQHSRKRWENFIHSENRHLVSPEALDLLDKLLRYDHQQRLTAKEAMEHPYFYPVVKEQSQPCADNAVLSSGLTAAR

T6 sequence (P07949 29-1114 V804M): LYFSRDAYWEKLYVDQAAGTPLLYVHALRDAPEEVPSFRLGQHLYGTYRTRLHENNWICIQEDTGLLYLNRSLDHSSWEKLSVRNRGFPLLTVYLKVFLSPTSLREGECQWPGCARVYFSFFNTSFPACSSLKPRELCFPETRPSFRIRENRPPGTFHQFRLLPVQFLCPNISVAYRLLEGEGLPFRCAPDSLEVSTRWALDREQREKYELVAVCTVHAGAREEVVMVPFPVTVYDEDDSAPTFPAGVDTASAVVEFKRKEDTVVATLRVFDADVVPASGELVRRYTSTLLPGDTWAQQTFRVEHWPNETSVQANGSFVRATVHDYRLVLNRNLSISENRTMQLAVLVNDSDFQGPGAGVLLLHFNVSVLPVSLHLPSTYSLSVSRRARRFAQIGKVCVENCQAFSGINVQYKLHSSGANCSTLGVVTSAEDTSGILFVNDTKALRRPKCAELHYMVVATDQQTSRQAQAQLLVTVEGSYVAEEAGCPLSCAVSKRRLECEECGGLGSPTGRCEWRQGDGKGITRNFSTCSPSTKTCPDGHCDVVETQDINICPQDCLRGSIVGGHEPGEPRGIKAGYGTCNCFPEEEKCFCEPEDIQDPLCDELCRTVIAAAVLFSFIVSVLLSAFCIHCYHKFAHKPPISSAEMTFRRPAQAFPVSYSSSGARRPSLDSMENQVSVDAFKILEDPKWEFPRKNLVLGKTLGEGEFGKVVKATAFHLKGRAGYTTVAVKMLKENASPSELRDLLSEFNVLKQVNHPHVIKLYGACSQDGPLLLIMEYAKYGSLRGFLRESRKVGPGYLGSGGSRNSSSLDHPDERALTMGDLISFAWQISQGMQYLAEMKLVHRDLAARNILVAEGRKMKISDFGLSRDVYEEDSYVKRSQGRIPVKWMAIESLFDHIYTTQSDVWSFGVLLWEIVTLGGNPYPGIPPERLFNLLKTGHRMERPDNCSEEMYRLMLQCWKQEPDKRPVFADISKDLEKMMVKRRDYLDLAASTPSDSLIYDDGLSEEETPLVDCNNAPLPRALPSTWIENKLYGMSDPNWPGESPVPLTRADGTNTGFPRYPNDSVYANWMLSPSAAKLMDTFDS
T2 sequence (P27448 whole entry): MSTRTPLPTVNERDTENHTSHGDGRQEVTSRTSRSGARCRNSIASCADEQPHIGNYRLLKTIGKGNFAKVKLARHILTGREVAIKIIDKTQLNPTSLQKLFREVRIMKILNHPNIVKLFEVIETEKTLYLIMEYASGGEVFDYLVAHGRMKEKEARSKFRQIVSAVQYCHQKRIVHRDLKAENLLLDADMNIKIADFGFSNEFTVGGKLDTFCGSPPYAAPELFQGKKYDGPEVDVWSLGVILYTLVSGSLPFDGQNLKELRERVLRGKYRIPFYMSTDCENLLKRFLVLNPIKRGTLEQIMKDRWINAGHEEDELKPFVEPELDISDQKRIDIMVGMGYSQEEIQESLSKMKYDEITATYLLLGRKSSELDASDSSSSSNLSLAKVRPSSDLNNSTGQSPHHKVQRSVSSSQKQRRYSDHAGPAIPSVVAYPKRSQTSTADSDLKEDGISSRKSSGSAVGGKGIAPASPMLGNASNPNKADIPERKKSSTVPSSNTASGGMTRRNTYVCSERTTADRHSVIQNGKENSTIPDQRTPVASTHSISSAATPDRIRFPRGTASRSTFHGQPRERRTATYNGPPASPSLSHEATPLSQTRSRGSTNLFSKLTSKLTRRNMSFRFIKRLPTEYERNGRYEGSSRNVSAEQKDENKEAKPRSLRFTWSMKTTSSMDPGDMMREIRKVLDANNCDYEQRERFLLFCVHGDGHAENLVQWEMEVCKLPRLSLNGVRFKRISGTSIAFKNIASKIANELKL
Sequence of FGFR1(h) (P11362 22-822): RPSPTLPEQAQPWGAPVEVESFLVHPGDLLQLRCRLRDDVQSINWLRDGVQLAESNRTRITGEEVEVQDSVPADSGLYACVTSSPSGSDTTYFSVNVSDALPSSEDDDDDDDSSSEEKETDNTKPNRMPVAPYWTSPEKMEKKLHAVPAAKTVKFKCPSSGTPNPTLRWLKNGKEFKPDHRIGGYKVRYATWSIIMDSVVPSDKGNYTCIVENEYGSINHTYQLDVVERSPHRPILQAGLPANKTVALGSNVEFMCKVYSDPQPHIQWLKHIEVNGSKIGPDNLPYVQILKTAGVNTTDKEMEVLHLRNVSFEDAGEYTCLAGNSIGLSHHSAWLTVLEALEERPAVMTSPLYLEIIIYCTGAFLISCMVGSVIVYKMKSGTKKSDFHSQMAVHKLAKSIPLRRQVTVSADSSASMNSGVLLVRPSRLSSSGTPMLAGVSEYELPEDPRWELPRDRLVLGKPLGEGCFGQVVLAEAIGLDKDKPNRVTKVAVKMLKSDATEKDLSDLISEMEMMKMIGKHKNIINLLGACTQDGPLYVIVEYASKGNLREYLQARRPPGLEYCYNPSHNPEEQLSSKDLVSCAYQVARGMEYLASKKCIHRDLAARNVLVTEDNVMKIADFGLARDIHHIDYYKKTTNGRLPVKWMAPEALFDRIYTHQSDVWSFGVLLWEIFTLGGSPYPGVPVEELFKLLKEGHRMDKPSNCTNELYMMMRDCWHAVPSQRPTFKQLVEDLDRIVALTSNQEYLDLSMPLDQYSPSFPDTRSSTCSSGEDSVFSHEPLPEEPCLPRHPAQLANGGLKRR
T7 sequence (P37173 23-567): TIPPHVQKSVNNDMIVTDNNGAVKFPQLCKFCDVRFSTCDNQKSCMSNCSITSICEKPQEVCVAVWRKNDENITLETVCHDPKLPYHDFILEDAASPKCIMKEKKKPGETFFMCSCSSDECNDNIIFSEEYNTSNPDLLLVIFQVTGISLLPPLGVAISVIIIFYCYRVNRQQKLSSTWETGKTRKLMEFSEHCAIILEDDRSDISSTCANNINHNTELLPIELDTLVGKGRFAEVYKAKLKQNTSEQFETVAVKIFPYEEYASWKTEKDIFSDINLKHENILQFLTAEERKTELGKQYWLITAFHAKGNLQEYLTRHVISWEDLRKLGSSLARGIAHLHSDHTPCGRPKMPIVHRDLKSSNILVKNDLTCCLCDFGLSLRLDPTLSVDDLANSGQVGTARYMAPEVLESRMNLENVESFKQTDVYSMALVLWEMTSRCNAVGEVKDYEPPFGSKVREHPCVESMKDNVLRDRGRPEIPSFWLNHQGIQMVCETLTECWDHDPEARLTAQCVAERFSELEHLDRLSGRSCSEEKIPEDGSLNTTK
T4 sequence (P06239 whole entry): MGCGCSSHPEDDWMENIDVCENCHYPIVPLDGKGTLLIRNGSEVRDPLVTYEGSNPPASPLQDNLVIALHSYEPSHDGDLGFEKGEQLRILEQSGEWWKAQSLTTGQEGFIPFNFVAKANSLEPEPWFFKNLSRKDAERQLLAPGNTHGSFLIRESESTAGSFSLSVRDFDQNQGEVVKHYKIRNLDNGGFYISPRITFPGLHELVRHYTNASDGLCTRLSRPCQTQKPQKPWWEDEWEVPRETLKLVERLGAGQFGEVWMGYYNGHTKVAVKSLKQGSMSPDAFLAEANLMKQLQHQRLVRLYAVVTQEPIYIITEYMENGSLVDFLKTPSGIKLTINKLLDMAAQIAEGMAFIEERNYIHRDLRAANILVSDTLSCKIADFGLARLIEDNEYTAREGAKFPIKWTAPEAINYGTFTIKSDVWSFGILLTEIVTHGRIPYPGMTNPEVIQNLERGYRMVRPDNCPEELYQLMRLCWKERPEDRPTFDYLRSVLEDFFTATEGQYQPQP

COc1cc(OC)c(Cl)c(-c2ccc3c(NC(=O)c4ccc(N5CCNC(C)(C)C5)cc4)n[nH]c3n2)c1Cl [3D185]
IC50 ([1]; estimated from 372-kinase panel): < 10 nM | inhibition at 0.01 µM ([1]; read-out: Inhibition rate (%)): 99% | inhibition at 0.1 µM ([1]; read-out: Inhibition rate (%)): 98% | inhibition at 1 µM ([1]; read-out: Inhibition rate (%)): 100% | inhibition at 0.01 µM ([2]; 10 nM): 0% | inhibition at 0.1 µM ([2]; 100 nM): -6% | inhibition at 1 µM ([2]; 1000 nM): 3% | inhibition at 0.01 µM ([3]; 10 nM): 7% | inhibition at 0.1 µM ([3]; 100 nM): -6% | inhibition at 1 µM ([3]; 1000 nM): -4% | inhibition at 0.01 µM ([4]; 10 nM): -5% | inhibition at 0.1 µM ([4]; 100 nM): -13% | inhibition at 1 µM ([4]; 1000 nM): 3% | inhibition at 0.01 µM ([5]; 10 nM): 16% | inhibition at 0.1 µM ([5]; 100 nM): 59% | inhibition at 1 µM ([5]; 1000 nM): 92% | inhibition at 0.01 µM ([6]; 10 nM): -1% | inhibition at 0.1 µM ([6]; 100 nM): -1% | inhibition at 1 µM ([6]; 1000 nM): 12% | inhibition at 0.01 µM ([7]; 10 nM): -3% | inhibition at 0.1 µM ([7]; 100 nM): -2% | inhibition at 1 µM ([7]; 1000 nM): 56% | inhibition at 0.01 µM ([8]; 10 nM): -10% | inhibition at 0.1 µM ([8]; 100 nM): -5% | inhibition at 1 µM ([8]; 1000 nM): -9% | inhibition at 0.01 µM ([9]; 10 nM): 0% | inhibition at 0.1 µM ([9]; 100 nM): 1% | inhibition at 1 µM ([9]; 1000 nM): -6%
